Laboratory results taken from patent US9486461B2, “Methods and compositions for inducing apoptosis by stimulating ER stress” (UNIVERSITY OF SOUTHERN CALIFORNIA, priority 2007, dated 2016).

Tested on: U251 glioblastoma cells
Assay: Colony formation assay after siRNA transfection, U251
Assay type: cell-based, human
Conditions: 48 h
Description: U251 glioblastoma cells were transiently transfected with si-RNA directed at GRP78 (si-GRP78) or caspase 4 (si-Casp 4). As a control, an siRNA targeted at green fluorescent protein (si-GFP) was used. […] After 48 hours of drug treatment, the drugs were removed and the fraction of surviving cells was determined by colony forming assays. Shown is the percentage of surviving cells (where the number of colonies under non-drug treated conditions was set to 100%). […] (B) In order to verify the effectiveness of the si-RNAs, Western blot analysis of the target proteins was performed. Note that the knock-down of GRP78 leads to increased levels of CHOP protein, as expected from the model of ER stress, where GRP78 signaling is upstream of CHOP.
U251 cells were transiently transfected with si-RNA directed at GRP78 (si-GRP78). As a control, an siRNA targeted at green fluorescent protein (si-GFP) was used. […] In parallel, transfected control cultures received no drug treatment or treatment with solvent (DMSO) alone. After 48 hours, the drugs were removed and the fraction of surviving cells was determined by colony forming assays over the course of 12-14 days. […]
Twenty-four hours after transfection with small interfering RNA (siRNA), the cells were seeded into six-well plates at 200 cells per well. […] Colonies were visualized by staining for 4 h with 1% methylene blue (in methanol) and then counted. […]

Compound: Cc1ccc(C)c(-c2cc(C(F)(F)F)nn2-c2ccc(S(N)(=O)=O)cc2)c1 [DMC, 4-[5-(2,5-dimethylphenyl)-3-(trifluoromethyl)-1H-pyrazol-1-yl]benzenesulfonamide]
- cell survival when GRP78 levels were reduced by siRNA (vs si-GFP) (U251, 40 μM Cxb or 30 μM DMC): less cell survival
- cell survival when caspase-4 expression was diminished by siRNA (vs si-GFP) (U251, 60 μM Cxb or 40 μM DMC): increased
